Bridge positions count the residues as written; N and C are the ends. Peptide text beside a SMILES is read from it.
Tests used:
human Kv1.3 = human Kv1.3 (Homo sapiens, UniProt P22001); format: cell-based; design: expressed in transfected cells
[1] = tested on: thapsigargin-induced IL-2 production in human whole blood; details: read-out: Analogue Activity (IC50) WB/IL-2
[2] = tested on: thapsigargin-induced IFN-g production in human whole blood; format: cell-based; details: read-out: Analogue Activity (IC50) WB/IFNg
human Kv1.3 (CHO) = biological target: T1, human Kv1.3 (CHO) (Homo sapiens, UniProt P22001); assay: cell-based; format: cell-based; details: read-out: Kv1.3 IC50 by IWQ
T1 construct: expressed in transfected cells
T1 sequence (P22001 whole entry): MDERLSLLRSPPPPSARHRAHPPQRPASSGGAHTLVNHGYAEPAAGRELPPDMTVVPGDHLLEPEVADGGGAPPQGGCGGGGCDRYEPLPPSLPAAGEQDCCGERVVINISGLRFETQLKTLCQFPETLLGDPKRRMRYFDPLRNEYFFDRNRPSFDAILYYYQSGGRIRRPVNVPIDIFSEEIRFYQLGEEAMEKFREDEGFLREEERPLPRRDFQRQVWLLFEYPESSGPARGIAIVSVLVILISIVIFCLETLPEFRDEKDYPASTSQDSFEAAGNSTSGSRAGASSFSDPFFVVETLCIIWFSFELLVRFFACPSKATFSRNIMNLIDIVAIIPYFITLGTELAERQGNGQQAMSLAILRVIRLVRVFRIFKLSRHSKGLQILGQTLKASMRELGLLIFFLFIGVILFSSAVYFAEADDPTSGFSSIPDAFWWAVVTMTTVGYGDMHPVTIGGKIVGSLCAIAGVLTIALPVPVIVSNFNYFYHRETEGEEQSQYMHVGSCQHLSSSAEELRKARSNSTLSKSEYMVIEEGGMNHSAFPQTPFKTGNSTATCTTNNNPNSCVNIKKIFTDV

Chain of human Kv1.3 (P22001 whole entry): as above

Compound	Kv1.3 Selectivity (= Kv1.1/Kv.3 IC50) (human Kv1.3)	IC50 (human Kv1.3; read-out: Kv1.3 (IC50)) [nM]	IC50 [1] [nM]	IC50 [2] [nM]	IC50 (human Kv1.3 (CHO)) [nM]
CC[C@H](C)[C@@H]1NC(=O)[C@H](CCCCN)NC(=O)[C@@H](NC(=O)[C@H](CCCCN)NC(=O)[C@@H](NC(=O)[C@H](CC(N)=O)NC(=O)[C@@H](NC(=O)[C@@H](NC(=O)[C@@H](NC(=O)CN)C(C)C)[C@@H](C)CC)[C@@H](C)CC)C(C)C)CSSC[C@@H]2NC(=O)[C@H](CCCCN)NC(=O)CNC(=O)[C@H](Cc3ccccc3)NC(=O)[C@H](CCCNC(=N)N)NC(=O)[C@H](CCSC)NC(=O)CNC(=O)[C@H](C)NC(=O)[C@H](CCCCN)NC(=O)[C@H](CCCCN)NC(=O)[C@@H]3CSSC[C@@H](C(=O)N[C@H](C(=O)N4CCC[C@H]4C(=O)N[C@@H](CCCCN)C(=O)O)[C@@H](C)O)NC(=O)[C@H](Cc4c[nH]cn4)NC(=O)[C@H](CSSC[C@H](NC(=O)[C@H](CCC(N)=O)NC(=O)[C@H](CCCNC(=N)N)NC(=O)[C@H](CO)NC1=O)C(=O)N[C@@H](CC(C)C)C(=O)N[C@@H](CCC(=O)O)C(=O)N1CCC[C@H]1C(=O)N3)NC(=O)[C@H](CCCCN)NC(=O)CNC(=O)[C@H](CC(N)=O)NC(=O)[C@H](C)NC2=O [M29A] (H-GVIINVKCKISRQCLEPCKKAGMRFGKCANGKCHCTPK-OH; disulfide 8-28, 14-33, 18-35)	105	0.033	0.447	0.292	
CC[C@H](C)[C@@H]1NC(=O)[C@H](CCCCN)NC(=O)[C@@H](NC(=O)[C@H](CCCCN)NC(=O)[C@@H](NC(=O)[C@H](CC(N)=O)NC(=O)[C@@H](NC(=O)[C@@H](NC(=O)[C@@H](NC(=O)CN)C(C)C)[C@@H](C)CC)[C@@H](C)CC)C(C)C)CSSC[C@@H]2NC(=O)[C@H](CCCCN)NC(=O)CNC(=O)[C@H](Cc3ccccc3)NC(=O)[C@H](CCCNC(=N)N)NC(=O)[C@H](CCSC)NC(=O)CNC(=O)[C@H](C)NC(=O)[C@H](CCCCN)NC(=O)[C@H](CCCCN)NC(=O)[C@@H]3CSSC[C@@H](C(=O)N[C@H](C(=O)N4CCC[C@H]4C(=O)N[C@@H](CCCCN)C(=O)O)[C@@H](C)O)NC(=O)[C@H](Cc4c[nH]cn4)NC(=O)[C@H](CSSC[C@H](NC(=O)[C@H](CCC(N)=O)NC(=O)[C@H](CCCNC(=N)N)NC(=O)[C@H](CO)NC1=O)C(=O)N[C@@H](CC(C)C)C(=O)N[C@@H](CCC(=O)O)C(=O)N1CCC[C@H]1C(=O)N3)NC(=O)[C@H](CCCCN)NC(=O)CNC(=O)[C@H](CC(N)=O)NC(=O)[C@H](CCCNC(=N)N)NC2=O [M29R] (H-GVIINVKCKISRQCLEPCKKAGMRFGKCRNGKCHCTPK-OH; disulfide 8-28, 14-33, 18-35)	30		11.7	7.68	
CC[C@H](C)[C@@H]1NC(=O)[C@H](CCCCN)NC(=O)[C@@H](NC(=O)[C@H](CCCCN)NC(=O)[C@@H](NC(=O)[C@H](CC(N)=O)NC(=O)[C@@H](NC(=O)[C@@H](NC(=O)[C@@H](NC(=O)CN)C(C)C)[C@@H](C)CC)[C@@H](C)CC)C(C)C)CSSC[C@@H]2NC(=O)[C@H](CCCCN)NC(=O)CNC(=O)[C@H](Cc3ccccc3)NC(=O)[C@H](CCCNC(=N)N)NC(=O)[C@H](CCSC)NC(=O)CNC(=O)[C@H](C)NC(=O)[C@H](CCCCN)NC(=O)[C@H](CCCCN)NC(=O)[C@@H]3CSSC[C@@H](C(=O)N[C@H](C(=O)N4CCC[C@H]4C(=O)N[C@@H](CCCCN)C(=O)O)[C@@H](C)O)NC(=O)[C@H](Cc4c[nH]cn4)NC(=O)[C@H](CSSC[C@H](NC(=O)[C@H](CCC(N)=O)NC(=O)[C@H](CCCNC(=N)N)NC(=O)[C@H](CO)NC1=O)C(=O)N[C@@H](CC(C)C)C(=O)N[C@@H](CCC(=O)O)C(=O)N1CCC[C@H]1C(=O)N3)NC(=O)[C@H](CCCCN)NC(=O)CNC(=O)[C@H](C)NC(=O)[C@H](CCSC)NC2=O [N30A] (H-GVIINVKCKISRQCLEPCKKAGMRFGKCMAGKCHCTPK-OH; disulfide 8-28, 14-33, 18-35)	14		0.971	0.637	
CC[C@H](C)[C@@H]1NC(=O)[C@H](CCCCN)NC(=O)[C@@H](NC(=O)[C@H](CCCCN)NC(=O)[C@@H](NC(=O)[C@H](CC(N)=O)NC(=O)[C@@H](NC(=O)[C@@H](NC(=O)[C@@H](NC(=O)CN)C(C)C)[C@@H](C)CC)[C@@H](C)CC)C(C)C)CSSC[C@@H]2NC(=O)[C@H](CCCCN)NC(=O)CNC(=O)[C@H](Cc3ccccc3)NC(=O)[C@H](CCCNC(=N)N)NC(=O)[C@H](CCSC)NC(=O)CNC(=O)[C@H](C)NC(=O)[C@H](CCCCN)NC(=O)[C@H](CCCCN)NC(=O)[C@@H]3CSSC[C@@H](C(=O)N[C@H](C(=O)N[C@@H](CCC(=O)O)C(=O)N[C@@H](CCCCN)C(=O)O)[C@@H](C)O)NC(=O)[C@H](Cc4c[nH]cn4)NC(=O)[C@H](CSSC[C@H](NC(=O)[C@H](CCC(N)=O)NC(=O)[C@H](CCCNC(=N)N)NC(=O)[C@H](CO)NC1=O)C(=O)N[C@@H](CC(C)C)C(=O)N[C@@H](CCC(=O)O)C(=O)N1CCC[C@H]1C(=O)N3)NC(=O)[C@H](CCCCN)NC(=O)CNC(=O)[C@H](CC(N)=O)NC(=O)[C@H](CCSC)NC2=O [P37E] (H-GVIINVKCKISRQCLEPCKKAGMRFGKCMNGKCHCTEK-OH; disulfide 8-28, 14-33, 18-35)	65		0.239	1.6	
CC[C@H](C)[C@@H]1NC(=O)[C@H](CCCCN)NC(=O)[C@@H](NC(=O)[C@H](CCCCN)NC(=O)[C@@H](NC(=O)[C@H](CC(N)=O)NC(=O)[C@@H](NC(=O)[C@@H](NC(=O)[C@@H](NC(=O)CN)C(C)C)[C@@H](C)CC)[C@@H](C)CC)C(C)C)CSSC[C@@H]2NC(=O)[C@H](CCCCN)NC(=O)CNC(=O)[C@H](Cc3ccccc3)NC(=O)[C@H](CCCNC(=N)N)NC(=O)[C@H](CCSC)NC(=O)CNC(=O)[C@H](C)NC(=O)[C@H](CCCCN)NC(=O)[C@H](CCCCN)NC(=O)[C@@H]3CSSC[C@@H](C(=O)N[C@H](C(=O)N4CCC[C@H]4C(=O)N[C@@H](CCCCN)C(=O)O)[C@@H](C)O)NC(=O)[C@H](Cc4c[nH]cn4)NC(=O)[C@H](CSSC[C@H](NC(=O)[C@H](CCC(N)=O)NC(=O)[C@H](C)NC(=O)[C@H](CO)NC1=O)C(=O)N[C@@H](CC(C)C)C(=O)N[C@@H](CCC(=O)O)C(=O)N1CCC[C@H]1C(=O)N3)NC(=O)[C@H](CCCCN)NC(=O)CNC(=O)[C@H](CC(N)=O)NC(=O)[C@H](CCSC)NC2=O [R12A] (H-GVIINVKCKISAQCLEPCKKAGMRFGKCMNGKCHCTPK-OH; disulfide 8-28, 14-33, 18-35)	17		0.123	0.155	
CC[C@H](C)[C@@H]1NC(=O)[C@H](CCCCN)NC(=O)[C@@H](NC(=O)[C@H](CCCCN)NC(=O)[C@@H](NC(=O)[C@H](CC(N)=O)NC(=O)[C@@H](NC(=O)[C@@H](NC(=O)[C@@H](NC(=O)CN)C(C)C)[C@@H](C)CC)[C@@H](C)CC)C(C)C)CSSC[C@@H]2NC(=O)[C@H](CCCCN)NC(=O)CNC(=O)[C@H](Cc3ccccc3)NC(=O)[C@H](CCCNC(=N)N)NC(=O)[C@H](CCSC)NC(=O)CNC(=O)[C@H](C)NC(=O)[C@H](CCCCN)NC(=O)[C@H](CCCCN)NC(=O)[C@@H]3CSSC[C@@H](C(=O)N[C@H](C(=O)N4CCC[C@H]4C(=O)N[C@@H](CCCCN)C(=O)O)[C@@H](C)O)NC(=O)[C@H](Cc4c[nH]cn4)NC(=O)[C@H](CSSC[C@H](NC(=O)[C@H](CCC(N)=O)NC(=O)[C@H](CCCNC(=N)N)NC(=O)[C@H](CCCNC(=N)N)NC1=O)C(=O)N[C@@H](CC(C)C)C(=O)N[C@@H](CCC(=O)O)C(=O)N1CCC[C@H]1C(=O)N3)NC(=O)[C@H](CCCCN)NC(=O)CNC(=O)[C@H](CC(N)=O)NC(=O)[C@H](CCSC)NC2=O [S11R] (H-GVIINVKCKIRRQCLEPCKKAGMRFGKCMNGKCHCTPK-OH; disulfide 8-28, 14-33, 18-35)	228		2.12	4.07	
CC[C@H](C)[C@@H]1NC(=O)[C@H](CCCCN)NC(=O)[C@@H](NC(=O)[C@H](CCCCN)NC(=O)[C@@H](NC(=O)[C@H](CC(N)=O)NC(=O)[C@@H](NC(=O)[C@@H](NC(=O)[C@@H](NC(=O)CN)C(C)C)[C@@H](C)CC)[C@@H](C)CC)C(C)C)CSSC[C@@H]2NC(=O)[C@H](CCCCN)NC(=O)CNC(=O)[C@H](Cc3ccccc3)NC(=O)[C@H](CCCNC(=N)N)NC(=O)[C@H](CCSC)NC(=O)CNC(=O)[C@H](C)NC(=O)[C@H](CCCCN)NC(=O)[C@H](CCCCN)NC(=O)[C@@H]3CSSC[C@@H](C(=O)N[C@@H](CCC(=O)O)C(=O)N4CCC[C@H]4C(=O)N[C@@H](CCCCN)C(=O)O)NC(=O)[C@H](Cc4c[nH]cn4)NC(=O)[C@H](CSSC[C@H](NC(=O)[C@H](CCC(N)=O)NC(=O)[C@H](CCCNC(=N)N)NC(=O)[C@H](CO)NC1=O)C(=O)N[C@@H](CC(C)C)C(=O)N[C@@H](CCC(=O)O)C(=O)N1CCC[C@H]1C(=O)N3)NC(=O)[C@H](CCCCN)NC(=O)CNC(=O)[C@H](CC(N)=O)NC(=O)[C@H](CCSC)NC2=O [T36E] (H-GVIINVKCKISRQCLEPCKKAGMRFGKCMNGKCHCEPK-OH; disulfide 8-28, 14-33, 18-35)	44		1.74	2.42	
E. coli-derived ShK[2-35]-L-Fc					4.9
E. coli-derived Shk[1-35]-L-Fc					2.4

Source: patent US7820623B2 (priority 2006, dated 2010)
